In ChEMBL document CHEMBL1201862, “PubChem BioAssay data set” (2004):
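Protocol summary: plate cells (96-well), add compound at 5 concentrations, incubate 48 h, interpolate endpoints linearly. GI50 marks 50% less growth.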 Active and inactive are the calls of the source. Rule as the data show it: active = GI50 up to about 1.1 µM and inactive = higher.

How the values were obtained:
Test in all cases: growth of human tumour cells (NCI), 48 h
HCT-15 = test system: HCT-15
HOP-62 = test system: HOP-62
SF-268 = test system: SF-268
NCI-H460 = test system: NCI-H460
NCI-H23 = test system: NCI-H23
HCT-116 = test system: HCT-116
SW-620 = test system: SW-620
EKVX = test system: EKVX
UACC-257 = test system: UACC-257
MOLT-4 = test system: MOLT-4
RXF 393 = test system: RXF 393
SNB-75 = test system: SNB-75
SK-OV-3 = test system: SK-OV-3
SN12C = test system: SN12C
HCC 2998 = test system: HCC 2998
OVCAR-5 = test system: OVCAR-5
KM12 = test system: KM12
TK-10 = test system: TK-10
SF-295 = test system: SF-295

Structure (SMILES)	GI50 (HCT-15) [µM]	GI50 (HOP-62)	GI50 (SF-268)	GI50 (NCI-H460)	GI50 (NCI-H23)	GI50 (HCT-116)	GI50 (SW-620)	GI50 (EKVX)	GI50 (UACC-257)	GI50 (MOLT-4)	GI50 (RXF 393)	GI50 (SNB-75)	GI50 (SK-OV-3)	GI50 (SN12C)	GI50 (HCC 2998)	GI50 (OVCAR-5)	GI50 (KM12)	GI50 (TK-10)	GI50 (SF-295)
NC(=O)NNc1nc2ccccc2c(=O)n1NC(=O)C(=O)Nc1ccc(Cl)cc1Cl	> 100	> 100 µM (inactive)	> 100 µM (inactive)	> 100 µM (inactive)	> 100 µM (inactive)	> 100 µM (inactive)	> 100 µM (inactive)	66.8 µM (inactive)	> 100 µM (inactive)	> 100 µM (inactive)	> 100 µM (inactive)	> 100 µM (inactive)	> 100 µM (inactive)	> 100 µM (inactive)	> 100 µM (inactive)	> 100 µM (inactive)	> 100 µM (inactive)	> 100 µM (inactive)	> 100 µM (inactive)
CN1CCc2c1nc(-c1cccnc1)c1c2N(C)CC1	> 100	> 100 µM (inactive)	> 100 µM (inactive)	> 100 µM (inactive)	> 100 µM (inactive)	> 100 µM (inactive)	> 100 µM (inactive)	> 100 µM (inactive)	> 100 µM (inactive)	> 100 µM (inactive)	> 100 µM (inactive)	> 100 µM (inactive)	> 100 µM (inactive)	> 100 µM (inactive)	> 100 µM (inactive)	> 100 µM (inactive)	> 100 µM (inactive)	> 100 µM (inactive)	> 100 µM (inactive)
CC(=O)C(CN(CC(C)C)CC(C)C)C(c1ccccc1)c1c(O)c2ccccc2oc1=O (stereo unspecified)	> 100	> 100 µM (inactive)	> 100 µM (inactive)	–	> 100 µM (inactive)	> 100 µM (inactive)	> 100 µM (inactive)	> 100 µM (inactive)	> 100 µM (inactive)	> 100 µM (inactive)	> 100 µM (inactive)	> 100 µM (inactive)	> 100 µM (inactive)	> 100 µM (inactive)	> 100 µM (inactive)	> 100 µM (inactive)	–	> 100 µM (inactive)	> 100 µM (inactive)
CNC(=S)N/N=C1\CC(c2ccccc2)Oc2ccccc21 (stereo unspecified)	–	–	> 100 µM (inactive)	> 100 µM (inactive)	> 100 µM (inactive)	> 100 µM (inactive)	> 100 µM (inactive)	> 100 µM (inactive)	–	> 100 µM (inactive)	> 100 µM (inactive)	> 100 µM (inactive)	> 100 µM (inactive)	> 100 µM (inactive)	> 100 µM (inactive)	> 100 µM (inactive)	> 100 µM (inactive)	> 100 µM (inactive)	> 100 µM (inactive)
C=CCC1(CN(C)C)CC/C(=C\c2cc(OC)c(OC)c(OC)c2)C1=O (stereo unspecified)	20	77.8 µM (inactive)	19.2 µM (inactive)	18.8 µM (inactive)	35 µM (inactive)	17.5 µM (inactive)	18.7 µM (inactive)	12.2 µM (inactive)	27.7 µM (inactive)	27.5 µM (inactive)	19.2 µM (inactive)	62.2 µM (inactive)	–	22.3 µM (inactive)	18.1 µM (inactive)	51.9 µM (inactive)	17.4 µM (inactive)	18.8 µM (inactive)	38.1 µM (inactive)
CC(=O)OCC1OC(OC(C)=O)C(NC#N)C(OC(C)=O)C1OC(C)=O (stereo unspecified)	> 100	> 100 µM (inactive)	> 100 µM (inactive)	68.1 µM (inactive)	> 100 µM (inactive)	> 100 µM (inactive)	> 100 µM (inactive)	–	–	86.5 µM (inactive)	> 100 µM (inactive)	> 100 µM (inactive)	> 100 µM (inactive)	> 100 µM (inactive)	> 100 µM (inactive)	> 100 µM (inactive)	> 100 µM (inactive)	> 100 µM (inactive)	80.4 µM (inactive)
